Laboratory results from US9242944B2 (UNIVERSITY OF MARYLAND, BALTIMORE, priority 2013, dated 2016).
Entries after “also recorded” stand apart in the source; their conditions may differ. Where two headings read alike, the source gives them in different places.

Tests used:
Max-Max homodimers = molecular target: T1, Max-Max homodimers (Homo sapiens, UniProt P61244); test: EMSA of Max-Max homodimerization and DNA binding; settings: 50% inhibition of Max-Max dimerization and DNA binding in EMSAs
T1 construct: His6; made in house; host or cells: bacteria

HL60 cells [1] = test: Cell cycle analysis (propidium iodide, flow cytometry); format: cell-based; settings: 24 h
Procedure: Sub-confluent cultures of cells at >90% viability were plated into fresh medium at densities that were typically about 10% of those attained at the point of density arrest. The next day, Myc inhibitors at the stated concentrations were added for 24-48 hr. The cells were then harvested, washed twice in PBS and stained with propidium iodide as previously described(23). Cell cycle analyses were performed on a BD FACSCalibur™ flow cytometer (Becton Dickinson, Inc. Franklin Lakes, N.J.) and analyzed using ModFit LT 3.3 (Verity Software House, Topsham, Me.).

[2] = test system: c-Myc-responsive promoter; test: Myc reporter gene expression (luciferase) in HeLa cells; format: cell-based; settings: markedly diminished within 6 h of compound addition
Description: The generic reporter vector pGL4.28(luc2CP/minP/Hygro) (Promega Corp., Madison Wis.), which is specifically designed to reduce anomalous transcription and which contains a highly de-stabilized luciferase reporter was used to assess the effects of Myc inhibitors. […] A control vector containing this same oligonucleotide with mutant E-box sites ([NT] ID NO: 3) was used as a negative control. […] After automated DNA sequencing to confirm the identity of its respective insert, each vector was then separately co-transfected into HeLa cells together with the vector pFR400, which encodes a mutant form of dihydrofolate reductase that facilitates the step-wise amplification of the plasmid and any co-transfected sequences in the presence of increasing concentrations of the folate antagonist methotrexate (MTX). After first selecting for stably transfected cells by growth in hygromycin, the resistant clones were pooled and grown in serial four-fold increasing concentrations of MTX ranging from […]), thus allowing the luciferase signal originating from the first vector to be easily detected above background. No luciferase signal over background values could be obtained in unamplified cells or in amplified cells transfected with the mutant E-box-containing vector. […]

c-Myc-Max heterodimers = molecular target: T2, c-Myc-Max heterodimers (Homo sapiens, UniProt P01106); test: Electrophoretic mobility shift assay (EMSA) of c-Myc-Max dimerization and DNA binding
T2 construct: c-Myc bHLH-ZIP domain (residues 353-437); His6-TEV protease substrate tag; made in house; host or cells: bacteria (pET151 vector for Myc)
Procedure: The ability of a small-molecule to interfere with c-Myc-Max dimerization is conveniently assessed through the disruption of the c-Myc-Max/DNA ternary complex by an electrophoretic mobility shift assay (EMSA) using fluorescently-labelled DNA, and subsequently quantified by densitometry.(23) Accordingly, a 100-member library was screened for the ability to disrupt the c-Myc-Max dimer.
These were performed essentially as described previously (23). Briefly, Ni^+-agarose-purified His6-tagged c-Myc bHLH-ZIP domain (residues 353-437) was used for all binding assays as was the His6-tagged 151 residue isoform of Max, otherwise referred to as Max(S) (residues 2-151) (21). For each binding reaction, the proteins were allowed to heterodimerize at a concentration of 30 nM each in the presence of 20 nM of a 5′-HEX-tagged double-stranded 22-base pair oligonucleotide 5′-hexachlorofluoresceine-[…]-3′ (SEQ ID NO: 1) containing a consensus c-Myc binding site (CACGTG) and the indicated concentration of small molecule inhibitor. Control reactions contained the same oligonucleotide in the presence of 60 nM of the 160 residue isoform of Max referred to as Max(L) (21). All binding reactions were prepared in a buffer consisting of PBS (pH 7.3), 1 mmol/L EDTA, 0.1% NP40, 5% glycerol, 1 mmol/L DTT, and 0.4 mg/mL bovine serum albumin. Electrophoresis was performed on 8% polyacrylamide/bisacrylamide (80:1) gels in […] (23). Each reaction was run on at least three separate occasions.
EMSAs were performed essentially as described utilizing bacterially-expressed recombinant proteins purified nearly to homogeneity.(23) Experiments with Max homodimers used the His6-tagged 160 amino acid isoform of the protein, termed Max(L), which homodimerizes and binds DNA well. For studies with Myc-Max heterodimers, the His6-tagged 151 residue isoform of Max [Max(S)] was used, which binds DNA well as a heterodimer with Myc but poorly as a homodimer.(23) Recombinant Myc protein, expressed in the pET151 vector, consisted of the His6-TEV protease substrate-tagged 85 amino acid bHLH-ZIP domain. (23) Each protein was purified by Ni-agarose affinity chromatography as previously described. (23) The His6-TEV tag was removed from the Myc protein by TEV protease cleavage followed by re-purification using Ni-agarose affinity chromatography to remove the His6-TEV protease and the cleaved His6-TEV tag as previously described. Binding assays were performed with 30 nM of each protein and 30 nM of a 6-carboxy-2′,4,4′,5′,7,7′-hexachlorofluorescein (HEX)-tagged double-stranded oligonucleotide containing a consensus Myc binding site (IDT, Coralville, Iowa).(23)

HL60 cells [3] = test: Growth inhibition (MTT assay) in HL60 cells; format: cell-based, human; settings: 10-point serial dilution, quadruplicate; for IC50: read-out: IC50 HL60
Procedure: (§1) These were performed using HL60 human promyelocytic leukemia cells or Daudi Burkitt lymphoma cells essentially as described previously (23). Briefly, cells were seeded into 96 well dishes (5000 cells/well and 10,000 cells/well for HL60 and Daudi cells, respectively). Growth medium consisted of RPMI medium supplemented with Penicillin/Streptomycin, glutamine and 10% fetal bovine serum. The indicated concentrations of each compound were then added and 10-point growth inhibition assays were performed 3-5 days later using the MTT assay. Each point was performed in quadruplicate.
(§2) Daudi Burkitt lymphoma and HL60 promyelocytic leukemia cells were maintained in RPMI medium supplemented with 10% fetal bovine serum.(23) For growth inhibition studies, 3×10^3 cells were seeded in 96 well plates in the presence of serial dilutions of each compound. A total of 10 dilutions, ranging from 0.1 to 50 μM were performed for each compound. Standard MTT assays (23) were used to quantify cell number 3-4 days later and compared to wells exposed to DMSO vehicle only.

Daudi cells = test: Growth inhibition (MTT assay) in Daudi cells; format: cell-based; settings: 10-point serial dilution, quadruplicate; for IC50: read-out: IC50 Daudi
Procedure: as §1, §2

c-Myc-Max dimerization = molecular target: T3, c-Myc-Max dimerization (Homo sapiens, UniProt P01106); test: Co-immunoprecipitation (Co-IP) of c-Myc with Max in HL60 cells; format: cell-based
T3 construct: endogenous in cells; host or cells: HL60
Procedure: Co-IP assays were performed essentially as described previously.(23) Briefly, 5×10^6 HL60 cells (>90% viable) in log-phase growth were treated in suspension for 4-6 h with the stated concentration of 3jc48-3. As a negative control, samples exposed to DMSO vehicle only were included and processed in parallel. Treated cells were collected by centrifugation, washed twice in ice-cold PBS and lysed in IP Buffer. 300 μg of cleared lysate was then precipitated with a 1:200 dilution of anti-Max antibody(23) followed by subsequent precipitation with protein G-Sepharose using conditions recommended by the supplier (Santa Cruz Biotechnology, Inc. Santa Cruz, Calif.). The precipitate was washed three times in IP buffer, boiled in running buffer and resolved by 10% SDS-PAGE. After electrotransfer of the proteins to a PVDF membrane (Millipore Corp. Billercica, Mass.), the blot was probed with a 1:1000 dilution of anti-Myc monoclonal antibody (9E10, Santa Cruz Biotechnology, Santa Cruz, Calif.). Blots were developed using a Pierce ECL Plus enhanced chemiluminescence kit according to the directions of the supplier (Thermo-Fisher, Pittsburgh, Pa.).

T2 sequence (P01106 368-452, one chain of several): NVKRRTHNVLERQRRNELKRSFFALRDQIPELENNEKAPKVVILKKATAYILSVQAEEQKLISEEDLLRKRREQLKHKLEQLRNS
T3 sequence (P01106 16-454 limits assumed): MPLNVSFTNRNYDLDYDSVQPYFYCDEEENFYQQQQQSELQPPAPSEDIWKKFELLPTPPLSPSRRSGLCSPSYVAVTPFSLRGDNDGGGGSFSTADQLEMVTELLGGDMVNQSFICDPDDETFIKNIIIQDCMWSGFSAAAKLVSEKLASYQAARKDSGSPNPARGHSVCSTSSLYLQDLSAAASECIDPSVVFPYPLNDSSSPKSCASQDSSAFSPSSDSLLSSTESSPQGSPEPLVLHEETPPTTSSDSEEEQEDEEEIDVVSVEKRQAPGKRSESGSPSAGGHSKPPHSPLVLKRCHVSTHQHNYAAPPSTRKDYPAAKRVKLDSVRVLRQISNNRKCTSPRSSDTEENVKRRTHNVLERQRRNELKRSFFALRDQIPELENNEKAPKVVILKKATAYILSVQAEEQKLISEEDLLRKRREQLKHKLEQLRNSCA
T1 sequence (P61244 whole entry): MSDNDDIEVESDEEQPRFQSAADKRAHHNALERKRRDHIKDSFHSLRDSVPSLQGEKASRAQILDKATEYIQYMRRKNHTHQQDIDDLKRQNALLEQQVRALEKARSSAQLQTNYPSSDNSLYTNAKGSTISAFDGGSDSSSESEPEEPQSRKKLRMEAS

IC50 (Max-Max homodimers) [µM] | IC50 (c-Myc-Max heterodimers; 50% inhibition of c-Myc-Max dimerization and DNA binding in EMSAs) [µM] | c-Myc-Max inhibitory potency relative to 10074-G5 (c-Myc-Max heterodimers; EMSA) | inhibition at 100 µM (c-Myc-Max heterodimers; Table 10, 100 μM small-molecule, EMSA, read-out: % Inhibition of c-Myc-Max Dimerization) [%] | IC50 (HL60 cells [3]; Homo sapiens, HL-60, MTT assay) [µM] | IC50 HL60 (HL60 cells [3]; MTT assay) | IC50 (HL60 cells [3]; MTT assay) [µM] | IC50 Daudi (Daudi cells) | IC50 (Daudi cells) [µM] | IC50 (Daudi cells; Homo sapiens, Daudi) [µM] | IC50 (c-Myc-Max heterodimers) [µM] | Structure (SMILES) | cell cycle arrest, cells in G0/G1 (HL60 cells [1]) | inhibition of luciferase reporter under c-Myc-responsive vs NF-κB-responsive promoter [2] | selectivity for Myc-Max heterodimers over Max-Max homodimers (c-Myc-Max heterodimers; EMSA) | disruption of c-Myc-Max dimerization in cells (co-IP) (c-Myc-Max dimerization)
60.6 | 34.8 | approximately five-fold improvement | 94 | 3.8 | single-digit micromolar | 3.5 ± 0.54 | single-digit micromolar | 1.28 ± 0.73 | 1.3 |  | COC(=O)c1ccc(Nc2ccc([N+](=O)[O-])c3nonc23)c(-c2ccc(C)cc2)c1 [Compound 3jc48-3, Methyl 4′-methyl-6-((7-nitrobenzo[c][1,2,5]oxadiazol-4-yl)amino)-[1,1′-biphenyl]-3-carboxylate] | blocking progression of the cell cycle beyond the G0/G1 phase; also recorded: dose-dependently increased the percentage of HL60 cells in the G0/G1 stage | selectively inhibits the expression of the luciferase gene under the control of a c-Myc promoter; also recorded: selectively inhibited the c-Myc-driven gene | about two-fold selective; also recorded: two-fold selectivity | capable of disrupting c-Myc-Max dimerization within cells
 |  |  |  |  |  |  |  |  |  |  | O=C(OCC(F)(F)F)c1ccc(Nc2ccc([N+](=O)[O-])c3nonc23)cc1 [Compound 3jc91-7, Trifluoroethyl 4-((7-nitrobenzo[c][1,2,5]oxadiazol-4-yl)amino)benzoate] |  |  |  | inhibit c-Myc-Max dimerization in cells
> 50 |  |  |  | 9.2 ± 0.78 | single-digit micromolar |  | single-digit micromolar |  | 2.5 ± 0.05 | 30 | O=C(Oc1ccccc1)c1ccc(Nc2ccc([N+](=O)[O-])c3nonc23)cc1 [SF-4-017, Phenyl 4-((7-nitrobenzo[c][1,2,5]oxadiazol-4-yl)amino)benzoate] |  |  |  | inhibit c-Myc-Max dimerization in cells
